Measured values published in patent publication US10759748B2, “Compounds as L-cystine crystallization inhibitors and uses thereof” (NEW YORK UNIVERSITY, priority 2011, dated 2020).

Experiments:
[1] = Real time in situ AFM step velocity measurements of L-cystine crystal growth with additive; details: for Vo/V (inverse of V/Vo): higher = more effective inhibition; for V/Vo (normalized velocity of step advancement): supersaturated L-cystine solution, lower = more effective inhibition
Procedure: A Digital Instruments (Santa Barbara, Calif.) Nanoscope IIIa Multimode system is used for topographical and lattice imaging. All measurements are performed in contact mode using Veeco NP_B Si3N4 cantilever tips with a spring constant of 0.12 N/m (triangular, 196 μm length, 41 μm width) on a glass cantilever holder, and a liquid cell is created for in situ step velocity measurements. All L-cystine crystals for AFM measurements are prepared by the method described herein. Crystals are transferred onto an AFM specimen disk coated with partially cured (1 hr) UV-curable optical cement (Type SK-9, EMS Acquisition Corp.) by gently pressing the disk against hexagonal platelets or L-cystine needles isolated by filtration (Whatman Nuclepore membrane, 8 μm). The (0001) face of hexagonal platelets is exposed normal to the disk for AFM analysis with growth occurring along equivalent {1010} faces in the lateral directions, while the sides of L-cystine needles are exposed normal to the disc. The partially cured polymer with adhered crystals is completely cured by additional UV radiation (2 hrs) prior to analysis. Measurements of individual step heights for hexagonal L-cystine crystals are acquired in air (contact mode) at a scan rate of 1.00 Hz and 256 samples per line over a 15×15 μm^2 surface area. Integral and proportional gains are set to the highest possible values without obtaining feedback. Four hexagonal crystals (5 areas per crystal) are analyzed for statistical step height distributions, which are calculated from >10^3 individual steps. Lattice-resolved images of crystal surfaces are acquired in water (contact mode) using a scan rate of 112 Hz over a 12×12 nm^2 area.
Real time in situ step velocity measurements of L-cystine growth are assessed along six structurally-equivalent {1010} faces of the hexagonal structure. A liquid cell is created with the glass cantilever tip holder, and working solutions are injected through a 1-mL syringe. Prior to injecting the growth medium (i.e. supersaturated L-cystine solution), crystals are etched with deionized water in the fluid cell for one hour to remove amorphous deposits or impurities that may be present on the surface. Supersaturated solutions (0.5 g/L) are generated by adding L-cystine to deionized water, boiling the solution on a heating mantle for 20 min to completely dissolve the solute, and allowing the solution to cool for 20 min on the heating mantle before transferring the solution (via syringe) to the AFM fluid cell. This method allows the solution to gradually cool to room temperature prior to AFM measurements in an effort to minimize premature nucleation of L-cystine in the growth solution.
The effect of the compound of invention (additives) on crystal growth rates is investigated. Additives are combined with the supersaturated L-cystine following the 20 min cool down period (as discussed above) to avoid denaturing biological additives at higher temperature. A small volume (0.2 mL) of concentrated additive is mixed with 4.8 mL of L-cystine to generate 0.48 g/L L-cystine solutions with additives of varying concentrations. Control measurements without additive are performed in a similar manner, replacing concentrated additive solutions deionized water to maintain a constant L-cystine concentration. Data collection is started immediately after injecting the working solution into the AFM liquid cell. For each measurement, growth is first assessed in the absence of additive, then in the presence of additive on the identical area of the crystal surface to analyze relative changes in step velocity. Measurements are acquired at static conditions without refreshment of growth solution using supersaturated L-cystine solutions […] than the solubility of L-cystine in water, which is reported as 0.4-0.7 mM (pH 7, 25° C.). […] At static conditions, solute is depleted from solution during growth, leading to a slight decrease in the step velocity with increasing time. […]

[2] = pH 7, 25° C.; cited from earlier work

Compound | Vo/V (inverse of V/Vo) ([1]; additive 0.015 mM) | V/Vo (normalized velocity of step advancement) ([1]; additive 0.015 mM) | also measured
COC(=O)[C@@H](N)CS [Compound 3, L-cysteine methyl ester] |  |  | Vo/V (inverse of V/Vo) ([1]; additive 0.03 mM): 2.05; V/Vo (normalized velocity of step advancement) ([1]; additive 0.03 mM): 0.49
N[C@@H](CCSSCC[C@H](N)C(=O)O)C(=O)O [Compound 18, L-Homocystine, reference compound] | 0.95 | 1.05 | 
COC(=O)[C@@H](N)CCCC[C@H](N)C(=O)OC [Compound 12, L-dimethyl 2,7-diaminooctanedioate] | 1.09 | 0.92 | 
COC(=O)[C@@H](N)C/C=C/C[C@H](N)C(=O)OC [Compound 10, L-dimethyl 2,7-diaminooct-4-enedioate] | 1.23 | 0.81 | 
NCCSSCCN [Compound 16, cystamine] | 1 | 1 | 
CC(C)(C)OC(=O)N[C@@H](CSSC[C@H](NC(=O)OC(C)(C)C)C(=O)O)C(=O)O [Compound 11, Nα,Nα′-di-Boc-L-cystine, reference compound] |  |  | Vo/V (inverse of V/Vo) ([1]; additive 0.09 mM): 1.23; V/Vo (normalized velocity of step advancement) ([1]; additive 0.09 mM): 0.81
COC(=O)[C@@H](N)CSSC[C@H](N)C(=O)O [Compound 7, L-cystine methyl ester] | 1.47 | 0.68 | 
COC(=O)[C@@H](N)CCSSCC[C@H](N)C(=O)OC [Compound 5, L-homocystine dimethyl ester] | 1.59 | 0.63 | 
CC(C)OC(=O)[C@@H](N)CSSC[C@H](N)C(=O)OC(C)C [Compound 6, L-cystine diisopropyl ester] | 1.55 | 0.64 | 
N[C@@H](CSSC[C@H](N)C(=O)Oc1ccccc1)C(=O)Oc1ccccc1 [Compound 2, L-cystine diphenyl ester] | 2.44 | 0.41 | 
CC(C)(C)OC(=O)[C@@H](N)CSSC[C@H](N)C(=O)OC(C)(C)C [Compound 8, L-cystine ditert-butyl ester] | 1.43 | 0.7 | 
CC(S)C(=O)NCC(=O)O (centres unmarked) [Compound 9, N-(2-Mercapto-propionyl)glycine, reference compound] |  |  | Vo/V (inverse of V/Vo) ([1]; additive 0.03 mM): 1.35; V/Vo (normalized velocity of step advancement) ([1]; additive 0.03 mM): 0.74
N[C@@H](CCCC[C@H](N)C(=O)O)C(=O)O [Compound 14, L-diaminooctanedioic acid] | 1.03 | 0.97 | 
CCOC(=O)[C@@H](N)CSSC[C@H](N)C(=O)OCC [Compound 4, L-cystine diethyl ester] | 1.79 | 0.56 | 
N[C@@H](CSSC[C@H](N)C(=O)O)C(=O)O [L-cystine] |  |  | solubility of L-cystine in water [2]: 400 to 700 µM
COC(=O)[C@@H](N)CO [Compound 19, L-serine methyl ester] |  |  | Vo/V (inverse of V/Vo) ([1]; additive 0.03 mM): 0.93; V/Vo (normalized velocity of step advancement) ([1]; additive 0.03 mM): 1.07
N[C@@H](CS)C(=O)O [Compound 17, L-cysteine, reference compound] |  |  | Vo/V (inverse of V/Vo) ([1]; additive 0.03 mM): 1; V/Vo (normalized velocity of step advancement) ([1]; additive 0.03 mM): 1
COC(=O)[C@@H](N)CSSC[C@H](N)C(=O)OC [Compound 1, L-cystine dimethyl ester] | 2.62 | 0.38 | 
